The results in this text go back to patent US9757408B2 (Hayashibara Co., Ltd., priority 2010, dated 2017).

Data set [1] deals with IL-6 production from mouse intraperitoneal macrophages. The experiment in a line: IC50 for IL-6 production from mouse macrophages, LPS + IFN-γ (Experiment 19). It is filed as cell-based. Conditions: for inhibition of the production of IL-6 (in words): mouse intraperitoneal macrophages stimulated with LPS and IFN-γ; for IC50 Concentration IL-6 / IC50: mouse macrophages, LPS and IFN-γ, 20 hours; for IC50: read-out: IC50 Concentration IL-6. From the text: (§1) After completion of the culture, the supernatant in each well was collected and assayed for cytokines and prostaglandin E2 (called “PGE2”, hereinafter) with ELISA.

Data set [2] has as its system IL-12 production from mouse intraperitoneal macrophages. The experiment in a line: IC50 for IL-12 production from mouse macrophages, LPS + IFN-γ (Experiment 19). It is filed as cell-based. Conditions: mouse macrophages, LPS and IFN-γ, 20 hours; read-out: IC50 Concentration IL-12.
Excerpt: as §1

The test system of data set [3] is TNF-α production from mouse intraperitoneal macrophages. The data set can be described thus: IC50 for TNF-α production from mouse macrophages, LPS + IFN-γ, nucleic acid derivatives (Experiment 19). In kind it is cell-based. Conditions: for IC50 / IC50 Concentration TNF-α: mouse macrophages, LPS and IFN-γ, 20 hours; for IC50: read-out: IC50 Concentration TNF-α; for inhibitory action on the production of inflammatory cytokines (in words): mouse intraperitoneal macrophages stimulated with LPS and IFN-γ.
Excerpt: as §1

The subject of data set [4] is PGE2 production from mouse intraperitoneal macrophages. The experiment in a line: IC50 for PGE2 production from mouse macrophages, LPS + IFN-γ (Experiment 19). The settings on record: mouse macrophages, LPS and IFN-γ, 20 hours; read-out: IC50 Concentration PGE2. It is filed as cell-based.
Excerpt: as §1

Data set [5] concerns BALB/c mice. The experiment in a line: Acute toxicity test, intraperitoneal (Experiment 20). The settings on record: BALB/c mice, intraperitoneal. As for the experimental part:
As a control, only PBS was intraperitoneally administered to 10 BALB/c mice (6-week-old, female, average weight of 20 g, commercialized by Charles River Laboratories Japan Inc., Tokyo, Japan) at a dose of 1 mL/head, followed by observing the course of the mice for 24 hours.

Data set [6] relates to BALB/c mice. The experiment in a line: Safeness of injection preparations, i.v. once a day for seven days (Example 2). In kind it is in vivo. The settings on record: BALB/c mice. As for the experimental part: The safeness of the preparations prepared in the above was evaluated.

Where two headings read alike, the source gives them in different places. A value given as a limit tells only on which side of the number the result lay.

For `CNC(=O)[C@H]1O[C@@H](n2cnc3c(NCc4cccc(I)c4)ncnc32)[C@H](O)[C@@H]1O` [IB-MECA, 1-deoxy-1-[6-[[(3-iodophenyl-)methyl]amino]-9H-purin-9-yl]-N-methyl-β-D-ribofuranuronamide], in data set [1], the “inhibition of the production of IL-6 (in words)” value is reported as “no inhibition” and the “IC50 Concentration IL-6” value was “Not inhibited”. In addition, in data set [2], the IC50 is 4.5 µM. Besides, the IC50 in data set [3] came out at 0.4 µM.

In the case of `Nc1c2[nH]cnc2nc[n+]1[O-]` [adenine N1-oxide], the IC50 in data set [1] (Macrophage) was more than 200 µM; in data set [3] (Macrophage), 137 µM. Also, the “inhibitory action on the production of inflammatory cytokines (in words)” value (“inhibitory action on the production” below) in data set [3] was “only a weak inhibitory action”.

For `Nc1nc2c(ncn2[C@@H]2O[C@H](CO)[C@@H](O)[C@H]2O)c(=O)[nH]1` [guanosine], in data set [1], the “IC50 Concentration IL-6” value is “Not inhibited”. Moreover, in data set [3], the “IC50 Concentration TNF-α” value is “Not inhibited”.

In the case of `Nc1ncnc2c1ncn2[C@@H]1O[C@H](COP(=O)(O)O)[C@@H](O)[C@H]1O` [adenosine 5′-monophosphate], the “IC50 Concentration IL-6” value in data set [1] is “Not inhibited”. Besides, in data set [3] (Macrophage), the IC50 came out at 32.1 µM. Besides, the “inhibitory action on the production” value in data set [3] is reported as “only a weak inhibitory action”.

With `Nc1nc2c(nc(O)n2[C@@H]2O[C@H](CO)[C@@H](O)[C@H]2O)c(=O)[nH]1` [8-OH-guanosine], the “IC50 Concentration IL-6” value in data set [1] is “Enhanced”. Further, the IC50 in data set [3] is more than 200 µM.

Take `Nc1nc2nc[nH]c2c(=O)[nH]1` [guanine]: in data set [1], the “IC50 Concentration IL-6” value is listed as “Not inhibited”. Also, in data set [3], the “IC50 Concentration TNF-α” value is on record as “Not inhibited”.

Regarding `Nc1ncnc2nc[nH]c12` [adenine], the IC50 in data set [1] (Macrophage) was more than 200 µM; in data set [3] (Macrophage) it was 85.2 µM. The “inhibitory action on the production” value in data set [3] is given as “only a weak inhibitory action”.

Consider `Nc1nc2c([nH]c(=O)n2[C@H]2C[C@H](O)[C@@H](CO)O2)c(=O)[nH]1` [8-OH-deoxyguanine], for which the “IC50 Concentration IL-6” value in data set [1] was “Enhanced”. In addition, in data set [3], the IC50 was more than 200 µM.

As for `CC1(C)[C@@H](O[C@H]2O[C@H](C(=O)O)[C@@H](O)[C@H](O)[C@H]2O[C@@H]2O[C@H](C(=O)O)[C@@H](O)[C@H](O)[C@H]2O)CC[C@]2(C)[C@H]3C(=O)C=C4[C@@H]5C[C@@](C)(C(=O)O)CC[C@]5(C)CC[C@@]4(C)[C@]3(C)CC[C@@H]12` [dipotassium glycyrrhizinate], the IC50 in data set [4], in data set [1], in data set [2] and in data set [3] was more than 200 µM throughout.

For the compound `CC1(C)[C@@H](O)CC[C@]2(C)[C@H]3C(=O)C=C4[C@@H]5C[C@@](C)(C(=O)O)CC[C@]5(C)CC[C@@]4(C)[C@]3(C)CC[C@@H]12` [18β-glycyrrhetinate], the IC50 in data set [4] is more than 200 µM; in data set [1], 87.3 µM; in data set [2], more than 200 µM; in data set [3] it was 50.2 µM.

For `Nc1nc2c(ncn2[C@@H]2O[C@H](COP(=O)(O)O)[C@@H](O)[C@H]2O)c(=O)[nH]1` [guanosine 5′-monophosphate], the “IC50 Concentration IL-6” value in data set [1] is reported as “Not inhibited”. For the same compound, the “IC50 Concentration TNF-α” value in data set [3] was “Not inhibited”.

For `Nc1c2ncn([C@@H]3O[C@H](COP(=O)(O)O)[C@@H](O)[C@H]3O)c2nc[n+]1[O-]` [adenosine N1-oxide 5′-monophosphate], the “clinical laboratory test results that provide indices of renal and liver functions, versus control” value in data set [5] (blood and urine at 24 hours) is “no difference”. The “change in appearance after administration” value in data set [5] (observed 24 hours) was “no change in appearance”. Besides, the “inhibition of the production of IL-6 (in words)” value in data set [1] is listed as “strongly inhibited”. For the same compound, the IC50 in data set [1] is 10.2 µM; in data set [2], more than 200 µM; in data set [3] it was 0.9 µM. In addition, the “change in body weight and other appearance versus PBS” value in data set [6] (i.v. 0.3 mL/head once a day for seven days, followed two weeks) is given as “no significant change”. Further, the “clinical laboratory test results that provide indices of renal and liver functions versus PBS” value in data set [6] (i.v. once a day for seven days, two weeks after initiating) was “no difference”.
